Laboratory results: patent US20220315895A1, “METHODS OF MAKING OLIGOPOTENT AND UNIPOTENT PRECURSORS” (Transfusion Health, LLC, priority 2019, published 2022)

Legend:
[1] = test system: CD34+ cells isolated from donor peripheral blood; assay: Enhancement of HSCs derived from non-mobilized peripheral blood with compounds of Formula I (Example 33); assay type: cell-based; settings: normalized fold change days 2 to 7
Method: CD34+ cells were isolated from donor peripheral blood. Standard buffy coat separation using ficoll paque was performed. Cells were pelleted and incubated with unlabeled CD64 antibody. Cells then underwent negative depletion using biotinylated CD2, CD3, CD4, CD5, CD8, CD11b, CD14, CD16, CD19, CD20, CD45RA, CD56, CD235 (in some examples CD15, CD25 and other lineage specific antibodies may also be used). Cells which bind these antibodies are depleted using streptavidin beads. The enriched progenitor pool then undergoes cell sorting for CD34+.
Isolated CD34+ cells were incubated in an in vitro culture media of Alpha MEM without phenol red with 10% (v/v) heat inactivated fetal bovine serum (FBS). When testing compounds of Formula I, two internal controls were used: a positive control (+SF conditions) and a baseline control (i.e. basic conditions (“cytokines only”)). The media components and concentrations used for the compounds tested are described in [0563] Table 2. The culture also included an antibiotic solution that includes penicillin, streptomycin, and amphotericin B to avoid contamination. Controls were included because the amount of expansion in samples obtained varies from individual to individual.
(§1) Cultures were incubated at […] (controlled by nitrogen) and 5% CO2.
(§2) Small molecule components were added separately and fresh each time the media needs to be refreshed. Cytokines can be stored together. Media renewal should occur at least every few days.
On the days indicated one-half of the volume of the cell culture was removed for data analysis (flow cytometry using a BD FACS ARIA II). The culture volume was replenished with fresh media according to the conditions tested. The data reported accounts for the dilution factor introduced in this procedure.
Separate experiments were performed for each compound tested (Compound 1.001-1.023).
Table 3, below, summarizes the relative expansive effect of Compound 1.001 to 1.023 (sample compounds) at the indicated concentration. The data in Table 3 is reported as the relative expansive effect. The relative expansive effect is a normalized value of the fold changes shown in each of FIG. 1-FIG. 23. It is calculated as shown below: […]

[2] = test system: CD34+ cells from cord blood; assay: Expansion of cord blood CD34+ cells, seven-day culture (Example 35); assay type: cell-based, human; settings: normalized fold change days 1 to 7
Method: CD34+ cells from cord blood were purchased from STEMCELL Technologies. Primary human CD34+ cells were isolated from cord blood samples using positive immunomagnetic separation techniques. Cells were thawed and gradually brought to room temperature. Samples were washed, then placed in overnight culture in StemSpan with 100 ng/ml each of FLT3L, TPO, SCF, and TL-6. Eighteen to twenty-four hours later (day 1), cells were counted and immunophenotyped (flow cytometry on an Invitrogen Attune N×T cytometer).
Approximately 1000 live cells were plated into each well of 96-well plates; exact cell numbers dispensed per well were quantified with flow cytometry for later calculations.
Media for testing compounds of Formula I was prepared using Alpha MEM without phenol red, 10% (v/v) heat inactivated fetal bovine serum. Culture conditions also included an antibiotic solution that includes penicillin, streptomycin, and amphotericin B to avoid contamination. Additional media components and concentrations used for the compounds tested are described in Table 5.
All incubations for this experiment took place at 3% oxygen (controlled by nitrogen) and 5% CO2. Following seven days of culture, cells from wells were collected and phenotypes were analyzed (flow cytometry on an Invitrogen Attune N×T cytometer).
Table 6 below, summarizes the relative expansive effect of the screened compounds at the indicated concentration. The data in Table 6 is reported as the relative expansive effect. The relative expansive effect is a normalized value of the fold changes shown in each of the figures. It is calculated as shown below: […]

[3] = test system: hematopoietic stem cells derived from cord blood; assay: Enhancement of HSCs derived from cord blood with Compound 1.008 (Example 34); assay type: cell-based
Method: A frozen cord blood sample was thawed and gradually brought to room temperature. Thawed cord blood was incubated in an in vitro culture media of Alpha MEM without phenol red, 10% (v/v) heat inactivated fetal bovine serum (FBS). Four samples were tested: Base conditions, +SF Conditions, +1.008 Conditions, and +1.008/+ER conditions. The components included in each condition is described in [0574] Table 4. Each condition tested also included an antibiotic solution that includes penicillin, streptomycin, and amphotericin B to avoid contamination.
as §1, §2
On the days indicated varying amounts of the cell culture was removed for data analysis (flow cytometry using a BD FACS ARIA II) and to avoid overcrowding of cells. The culture volume was replenished with fresh media according to the conditions tested. The data reported accounts for the dilution factor introduced in this procedure.

[4] = +1.008 conditions (Compound 1.008 250 nM), 19 days in culture

CC(C)(C)C(=O)Nc1ccc2c(c1)C(=O)c1c(O)cccc1-2 [Compound 1.006]
CD90 effect (relative expansive effect on CD34+/CD133+/CD90+ cells) ([1]; sample compound 1 μM): ++++ (0.9 ≤ x < 1.25) | CD133 effect (relative expansive effect on CD34+/CD133+ cells) ([1]; sample compound 1 μM): +++ (0.55 ≤ x < 0.9) | CD90 effect (relative expansive effect on CD34+/CD133+/CD90+ cells) ([2]; sample compound 2 μM): ++ (1.44 ≤ x < 1.8) | CD133 effect (relative expansive effect on CD34+/CD133+ cells) ([2]; sample compound 2 μM): ++ (1.44 ≤ x < 1.8)

CC(C)(C)C(=O)Nc1ccc2c(c1)C(=O)c1cc(O)ccc1-2 [Compound 1.007, N-(7-hydroxy-9-oxo-9H-fluoren-2-yl)pivalamide]
CD90 effect (relative expansive effect on CD34+/CD133+/CD90+ cells) ([1]; sample compound 4 μM): ++++ (0.9 ≤ x < 1.25) | CD133 effect (relative expansive effect on CD34+/CD133+ cells) ([1]; sample compound 4 μM): +++ (0.55 ≤ x < 0.9) | CD90 effect (relative expansive effect on CD34+/CD133+/CD90+ cells) ([2]; sample compound 2 μM): ++++ (2.16 ≤ x < 2.52) | CD133 effect (relative expansive effect on CD34+/CD133+ cells) ([2]; sample compound 2 μM): ++++ (2.16 ≤ x < 2.52)

CC(C)(C)C(=O)Nc1ccc2c(c1)C(=O)c1cc(N)ccc1-2 [Compound 1.008, N-(7-amino-9-oxo-9H-fluoren-2-yl)pivalamide]
CD90 effect (relative expansive effect on CD34+/CD133+/CD90+ cells) ([1]; sample compound 4 μM): +++++ (1.25 ≤ x) | CD133 effect (relative expansive effect on CD34+/CD133+ cells) ([1]; sample compound 4 μM): +++ (0.55 ≤ x < 0.9) | fold increase in CD34+/CD133+ cells from day 2 [3, 4]: greater than 50 fold | fold increase in CD34+/CD133+/CD90+ cells from day 2 [3, 4]: ~20 fold | fold increase in CD34+/CD133+/CD90+/CD38low/− cells from day 2 [3, 4]: > 12 fold | fold increase in CD34+ cells from day 2 ([3]; +1.008 conditions (Compound 1.008 250 nM, TPO, SCF, FLT3L), 19 days in culture): greater than 50 fold | CD90 effect (relative expansive effect on CD34+/CD133+/CD90+ cells) ([2]; sample compound 8 μM): ++++ (2.16 ≤ x < 2.52) | CD133 effect (relative expansive effect on CD34+/CD133+ cells) ([2]; sample compound 8 μM): ++++ (2.16 ≤ x < 2.52)

CC(=O)Nc1ccc2c(c1)C(=O)c1ccccc1-2 [Compound 1.009, N-(9-oxo-9H-fluoren-2-yl)acetamide]
CD90 effect (relative expansive effect on CD34+/CD133+/CD90+ cells) ([1]; sample compound 2 μM): +++++ (1.25 ≤ x) | CD133 effect (relative expansive effect on CD34+/CD133+ cells) ([1]; sample compound 2 μM): +++++ (1.25 ≤ x) | CD90 effect (relative expansive effect on CD34+/CD133+/CD90+ cells) ([2]; sample compound 0.5 μM): +++ (1.8 ≤ x < 2.16) | CD133 effect (relative expansive effect on CD34+/CD133+ cells) ([2]; sample compound 0.5 μM): +++ (1.8 ≤ x < 2.16)

CC(C)(C)C(=O)Nc1ccc2c(c1)/C(=N/O)c1ccccc1-2 [Compound 1.013, N-(9-(hydroxyimino)-9H-fluoren-2-yl)pivalamide]
CD90 effect (relative expansive effect on CD34+/CD133+/CD90+ cells) ([1]; sample compound 4 μM): +++ (0.55 ≤ x < 0.9) | CD133 effect (relative expansive effect on CD34+/CD133+ cells) ([1]; sample compound 4 μM): +++ (0.55 ≤ x < 0.9) | CD90 effect (relative expansive effect on CD34+/CD133+/CD90+ cells) ([2]; sample compound 2 μM): +++++ (2.52 ≤ x) | CD133 effect (relative expansive effect on CD34+/CD133+ cells) ([2]; sample compound 2 μM): ++++ (2.16 ≤ x < 2.52)

CC(C)(C)C(=O)Nc1cc2c(cc1O)-c1ccccc1C2=O [Compound 1.014, N-(3-hydroxy-9-oxo-9H-fluoren-2-yl)pivalamide]
CD90 effect (relative expansive effect on CD34+/CD133+/CD90+ cells) ([1]; sample compound 8 μM): +++ (0.55 ≤ x < 0.9) | CD133 effect (relative expansive effect on CD34+/CD133+ cells) ([1]; sample compound 8 μM): ++ (0.2 ≤ x < 0.55) | CD90 effect (relative expansive effect on CD34+/CD133+/CD90+ cells) ([2]; sample compound 8 μM): ++ (1.44 ≤ x < 1.8) | CD133 effect (relative expansive effect on CD34+/CD133+ cells) ([2]; sample compound 8 μM): ++ (1.44 ≤ x < 1.8)

CC(C)(C)C(=O)Nc1ccc2c(c1)C(N)c1ccccc1-2 (stereo not drawn) [Compound 1.015, N-(9-amino-9H-fluoren-2-yl)pivalamide]
CD90 effect (relative expansive effect on CD34+/CD133+/CD90+ cells) ([1]; sample compound 2 μM): ++++ (0.9 ≤ x < 1.25) | CD133 effect (relative expansive effect on CD34+/CD133+ cells) ([1]; sample compound 2 μM): +++ (0.55 ≤ x < 0.9) | CD90 effect (relative expansive effect on CD34+/CD133+/CD90+ cells) ([2]; sample compound 0.5 μM): ++ (1.44 ≤ x < 1.8) | CD133 effect (relative expansive effect on CD34+/CD133+ cells) ([2]; sample compound 0.5 μM): ++ (1.44 ≤ x < 1.8)

CCOC1c2ccccc2-c2ccc(NC(C)=O)cc21 (stereo not drawn) [Compound 1.021, N-(9-ethoxy-9H-fluoren-2-yl)acetamide]
CD90 effect (relative expansive effect on CD34+/CD133+/CD90+ cells) ([1]; sample compound 8 μM): ++ (0.2 ≤ x < 0.55) | CD133 effect (relative expansive effect on CD34+/CD133+ cells) ([1]; sample compound 8 μM): ++ (0.2 ≤ x < 0.55) | CD90 effect (relative expansive effect on CD34+/CD133+/CD90+ cells) ([2]; sample compound 8 μM): + (x < 1.44) | CD133 effect (relative expansive effect on CD34+/CD133+ cells) ([2]; sample compound 8 μM): + (x < 1.44)

CC(=O)Nc1ccc2c(c1)C(OC(C)=O)c1ccccc1-2 (stereo not drawn) [Compound 1.022, 2-acetamido-9H-fluoren-9-yl acetate]
CD90 effect (relative expansive effect on CD34+/CD133+/CD90+ cells) ([1]; sample compound 32 μM): +++++ (1.25 ≤ x) | CD133 effect (relative expansive effect on CD34+/CD133+ cells) ([1]; sample compound 32 μM): +++ (0.55 ≤ x < 0.9) | CD90 effect (relative expansive effect on CD34+/CD133+/CD90+ cells) ([2]; sample compound 8 μM): ++ (1.44 ≤ x < 1.8) | CD133 effect (relative expansive effect on CD34+/CD133+ cells) ([2]; sample compound 8 μM): +++ (1.8 ≤ x < 2.16)

CCOC1c2ccccc2-c2ccc(NC(=O)C(C)(C)C)cc21 (stereo not drawn) [Compound 1.023, N-(9-ethoxy-9H-fluoren-2-yl)pivalamide]
CD90 effect (relative expansive effect on CD34+/CD133+/CD90+ cells) ([1]; sample compound 32 μM): ++ (0.2 ≤ x < 0.55) | CD133 effect (relative expansive effect on CD34+/CD133+ cells) ([1]; sample compound 32 μM): + (x < 0.2) | CD90 effect (relative expansive effect on CD34+/CD133+/CD90+ cells) ([2]; sample compound 8 μM): ++ (1.44 ≤ x < 1.8) | CD133 effect (relative expansive effect on CD34+/CD133+ cells) ([2]; sample compound 8 μM): ++ (1.44 ≤ x < 1.8)

ER50891 [reference compound]
fold increase levels of HSC populations on addition of ER50891 ([3]; ER50891 100 nM added to Compound 1.008 250 nM (+1.008/+ER conditions), compared with +1.008 alone): even further improved
